Biological target: T1, bovine COX-2 (Bos taurus, UniProt O62698)
T1 sequence (O62698 18-604): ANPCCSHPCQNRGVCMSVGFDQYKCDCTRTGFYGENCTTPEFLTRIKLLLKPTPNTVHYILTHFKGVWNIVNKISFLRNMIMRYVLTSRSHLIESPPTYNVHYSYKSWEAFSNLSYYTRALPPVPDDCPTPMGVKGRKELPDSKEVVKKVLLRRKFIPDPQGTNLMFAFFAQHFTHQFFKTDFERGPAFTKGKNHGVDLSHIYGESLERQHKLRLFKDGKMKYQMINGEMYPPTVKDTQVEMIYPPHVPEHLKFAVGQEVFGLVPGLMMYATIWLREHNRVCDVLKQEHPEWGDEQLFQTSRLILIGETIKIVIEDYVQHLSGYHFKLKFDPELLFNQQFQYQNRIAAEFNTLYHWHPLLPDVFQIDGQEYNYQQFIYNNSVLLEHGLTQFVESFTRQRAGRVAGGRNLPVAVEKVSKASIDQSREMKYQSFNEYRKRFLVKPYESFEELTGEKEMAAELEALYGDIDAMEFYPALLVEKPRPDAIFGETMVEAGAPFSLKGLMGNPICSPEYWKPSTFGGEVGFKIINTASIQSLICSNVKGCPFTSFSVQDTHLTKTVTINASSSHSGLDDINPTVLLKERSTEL
Test: COX-2 inhibition assay, enzyme immunoassay (EIA) kit
Assay type: biochemical
Details: in-vitro
Description: The ability of selected compounds to inhibit bovine COX-2 was determined using an enzyme immunoassay (EIA) kit (Cayman Chemical Company, Ann Arbor, MI, USA), according to the reported method. The activity was expressed as half-maximal inhibitory concentrations, IC50 (in μM), obtained after non-linear regression, using the program GraphPad Prism version 5.00 (GraphPad Software, San Diego, CA, USA).

salvianolic acid B [Compound 51]
IC50: 10.5 µM
